In patent publication US12291529B2, “Heterocyclic GLP-1 agonists” (Gasherbrum Bio, Inc., priority 2023, dated 2025):

Target: GLP-1 Receptor (Homo sapiens, UniProt P43220)
Test: GLP-1R agonist cAMP stimulation assay (HEK293/GLP1R/CRE-LUC cells, Cisbio cAMP dynamic 2 kit)
Format: cell-based
Conditions: Table 3, HEK293/GLP1R/CRE-LUC cells, 30 min
Description: Activation of GLP-1 receptor is known to stimulate cyclic AMP (cAMP) production in cells which indicates primary coupling to the G as subunit of the G protein heterotrimeric complex.
To optimize functional activity directed toward G as coupling, a HEK293/CRE-Luc cell line developed by HDB stably expressing the GLP-1 Receptor was used. 200× concentration of compound working solutions were prepared (Agilent Technologies Bravo) with ½ log serial dilution in 384-well Echo LDV plate (Labcyte, CatOLP-0200). 50 nL/well 200× concentration of compound working solutions were moved to 384-well white low volume plate (Greiner, Cat4784075) using Labcyte ECH0550.1×10^5 cells/mL HEK293/GLP1R/CRE-LUC (HD Biosciences) cell suspensions prepared with assay buffer (DPBS containing 0.5 mM IBMX (Sigma, Cat15879) and 0.10 BSA (GENVIEW, Cat4FA016-100g)), 10 uL cell suspensions were added to each well of previous generated assay plate which already contains 50 n^1 compound at 200 xconcentration using ThermioFisher Multidrop Combi (1000 cells/well). Seal the plate and incubate at 37 with […] for 30 m.
After incubation the cAMP assay signal was generated using cAMP dynamic 2 Kit (Cisbio). 5 μL cAMP-d2 working solution was added to each well, followed with 5 L Anti-cAMP antibody-cryptate working solution added to each well using ThermoFisher Multidrop Combi. Incubate at room temperature for 1 hour protected from light. Read the fluorescence at 665 and 615 nm with Reader PerkinElmer EnVision. % oActivity=100%×(mean RLU of test sample−mean RLU of vehicle control)/(mean RLU of MAX control−mean RLU of vehicle control)

GLP-1 Receptor, sequence (P43220 24-463, species assumed): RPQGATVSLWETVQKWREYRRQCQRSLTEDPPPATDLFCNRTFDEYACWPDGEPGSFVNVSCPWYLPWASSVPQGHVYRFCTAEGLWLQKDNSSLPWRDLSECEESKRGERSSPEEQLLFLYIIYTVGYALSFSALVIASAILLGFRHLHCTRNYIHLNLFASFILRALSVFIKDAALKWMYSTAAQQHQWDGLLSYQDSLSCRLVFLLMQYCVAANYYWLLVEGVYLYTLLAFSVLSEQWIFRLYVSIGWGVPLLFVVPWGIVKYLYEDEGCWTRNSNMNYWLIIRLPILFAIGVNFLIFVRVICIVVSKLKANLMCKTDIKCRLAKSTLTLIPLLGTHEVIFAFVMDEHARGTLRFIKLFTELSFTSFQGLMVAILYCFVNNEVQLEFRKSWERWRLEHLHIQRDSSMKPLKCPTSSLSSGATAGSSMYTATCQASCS

Row | EC50 [nM] | SMILES
1 | 0.018 | Cc1cc(-n2nc3c(c2-n2ccn(-c4ccc5c(c4Cl)CN=S5(C)=O)c2=O)[C@H](C)N(C(=O)c2cc4cc([C@H]5CCOC(C)(C)C5)ccc4n2[C@@]2(c4noc(=O)[nH]4)C[C@@H]2C)CC3)cc(C)c1F (single isomer, unassigned) [Compound 202]
2 | 0.07 | Cc1cc(-n2nc3c(c2-n2ccn(-c4ccc(S(=N)(=O)C5CCC5)cc4F)c2=O)[C@H](C)N(C(=O)c2cc4cc(C5CCOCC5)ccc4n2[C@@]2(c4noc(=O)[nH]4)C[C@@H]2C)CC3)cc(C)c1F (single isomer, unassigned) [Compound 169]
3 | 0.035 | Cc1cc(-n2nc3c(c2-n2ccn(-c4ccc(S(C)(=O)=NC#N)cc4)c2=O)[C@H](C)N(C(=O)c2cc4cc(C5CCOCC5)ccc4n2[C@@]2(c4noc(=O)[nH]4)C[C@@H]2C)CC3)cc(C)c1F (single isomer, unassigned) [Compound 113]
4 | 0.013 | Cc1cc(-n2nc3c(c2-n2ccn(-c4ccc5c(c4)CCN=S5(C)=O)c2=O)[C@H](C)N(C(=O)c2cc4cc(C5CCOCC5)ccc4n2[C@@]2(c4noc(=O)[nH]4)C[C@@H]2C)CC3)cc(C)c1F (stereo partly drawn) [Compound 108, 6-{3-[(4S)-2-(4-fluoro-3,5-dimethylphenyl)-5-({1-[(1S,2S)-2-methyl-1-(5-oxo-4H-1,2,4-oxadiazol-3-yl)cyclopropyl]-5-(3,4,5,6-tetrahydro-2H-pyran-4-yl)indol-2-yl}carbonyl)-4-methyl-4,5,6,7-tetrahydropyrazolo[4,3-c]pyridin-3-yl]-2-oxoimidazol-1-yl}-1-methyl-3,4-dihydro-1λ^6-benzo[2,1-e][1,2]thiazin-1-one]
5 | 0.14 | Cc1cc(-n2nc3c(c2N2CCN(c4ccc(S(C)(=N)=O)cc4)C2=O)[C@H](C)N(C(=O)c2cc4cc(C5CCOCC5)ccc4n2[C@@]2(c4noc(=O)[nH]4)C[C@@H]2C)CC3)cc(C)c1F (stereo partly drawn) [Compound 103, 3-[(1S,2S)-1-(2-{[(4S)-3-(3-{4-[azanylidene(methyl)(oxo)-λ^6-sulfanyl]phenyl}-2-oxotetrahydro-1H-imidazol-1-yl)-2-(4-fluoro-3,5-dimethylphenyl)-4-methyl-4,5,6,7-tetrahydropyrazolo[4,3-c]pyridin-5-yl]carbonyl}-5-(3,4,5,6-tetrahydro-2H-pyran-4-yl)indol-1-yl)-2-methylcyclopropyl]-4H,5H-1,2,4-oxadiazol-5-one]
6 | 0.019 | CCS(=N)(=O)c1ccc(-n2ccn(-c3c4c(nn3-c3ccc(F)c(C5CC5)c3)CCN(C(=O)c3cc5cc(C6CCOCC6)ccc5n3[C@@]3(c5noc(=O)[nH]5)C[C@@H]3C)[C@H]4C)c2=O)c(F)c1 (single isomer, unassigned) [Compound 166]
7 | 0.062 | CCS(=N)(=O)c1ccc(-n2ccn(-c3c4c(nn3-c3cc(C)c(F)c(C)c3)CCN(C(=O)c3cc5cc(C6CCOCC6)ccc5n3[C@@]3(c5noc(=O)[nH]5)C[C@@H]3C)[C@H]4C)c2=O)c(F)c1 (single isomer, unassigned) [Compound 139]
8 | 0.094 | Cc1cc(-n2nc3c(c2-n2ccn(-c4ccc(S(=N)(=O)CC5CC5)cc4F)c2=O)[C@H](C)N(C(=O)c2cc4cc(C5CCOCC5)ccc4n2[C@@]2(c4noc(=O)[nH]4)C[C@@H]2C)CC3)cc(C)c1F (single isomer, unassigned) [Compound 178]
9 | 0.04 | C[C@H]1c2c(nn(-c3ccc(F)c(C4CC4)c3)c2-n2ccn(-c3ccc(S(C)(=N)=O)cc3)c2=O)CCN1C(=O)c1cc2cc(C3CCOCC3)ccc2n1[C@@]1(c2noc(=O)[nH]2)C[C@@H]1C (some centres unmarked) [Compound 118]
10 | 0.018 | Cc1cc(-n2nc3c(c2-n2ccn(-c4ccc5c(c4F)CCN=S5(=O)C4CC4)c2=O)[C@H](C)N(C(=O)c2cc4cc([C@H]5CCOC(C)(C)C5)ccc4n2[C@@]2(c4noc(=O)[nH]4)C[C@@H]2C)CC3)cc(C)c1F (single isomer, unassigned) [Compound 197]
11 | 0.2 | CN=S(=O)(c1ccc(-n2ccn(-c3c4c(nn3-c3ccc(F)c(C5CC5)c3)CCN(C(=O)c3cc5cc([C@H]6CCOC(C)(C)C6)ccc5n3[C@@]3(c5noc(=O)[nH]5)C[C@@H]3C)[C@H]4C)c2=O)c(F)c1C)C1CC1 (single isomer, unassigned) [Compound 217]
